What was measured:
Format in all cases: in vivo
Settings in all cases: 250 g/Ha, evaluated after 13 days
[1] = tested on: Alopecurus myosuroides (ALOMY); experiment: Herbicidal glasshouse test, post-emergence, ALOMY
Description: (§1) Seeds of a variety of test species are sown in standard soil in pots (Lolium perenne (LOLPE), Setaria faberi (SETFA), Alopecurus myosuroides (ALOMY), Echinochloa crus-galli (ECHCG), Avena fatua (AVEFA)). […] Compounds are applied at 250 g/h. The test plants are then grown in a glasshouse under controlled conditions in a glasshouse (at 24/16° C., day/night; 14 hours light; 65% humidity) and watered twice daily. After 13 days for pre and post-emergence, the test is evaluated for the percentage damage caused to the plant. […] NT=not tested.

[2] = tested on: Setaria faberi (SETFA); experiment: Herbicidal glasshouse test, post-emergence, SETFA
Description: as §1

[3] = tested on: Alopecurus myosuroides (ALOMY); experiment: Herbicidal glasshouse test, pre-emergence, ALOMY
Description: as §1

[4] = tested on: Lolium perenne (LOLPE); experiment: Herbicidal glasshouse test, post-emergence, LOLPE
Description: as §1

[5] = tested on: Echinochloa crus-galli (ECHCG); experiment: Herbicidal glasshouse test, post-emergence, ECHCG
Description: as §1

[6] = tested on: Echinochloa crus-galli (ECHCG); experiment: Herbicidal glasshouse test, pre-emergence, ECHCG
Description: as §1

[7] = tested on: Avena fatua (AVEFA); experiment: Herbicidal glasshouse test, post-emergence, AVEFA
Description: as §1

[8] = tested on: Lolium perenne (LOLPE); experiment: Herbicidal glasshouse test, pre-emergence, LOLPE
Description: as §1

[9] = tested on: Avena fatua (AVEFA); experiment: Herbicidal glasshouse test, pre-emergence, AVEFA
Description: as §1

[10] = tested on: Setaria faberi (SETFA); experiment: Herbicidal glasshouse test, pre-emergence, SETFA
Description: as §1

SMILES | percentage damage caused to the plant, five-point scale, ALOMY [1] | percentage damage caused to the plant, five-point scale, SETFA [2] | percentage damage caused to the plant, five-point scale, ALOMY [3] | percentage damage caused to the plant, five-point scale, LOLPE [4] | percentage damage caused to the plant, five-point scale, ECHCG [5] | percentage damage caused to the plant, five-point scale, ECHCG [6] | percentage damage caused to the plant, five-point scale, AVEFA [7] | percentage damage caused to the plant, five-point scale, LOLPE [8] | percentage damage caused to the plant, five-point scale, AVEFA [9] | percentage damage caused to the plant, five-point scale, SETFA [10]
CC#Cc1cc(C)c(C2C(=O)CC3(CCN(C(=O)C(=O)OCC)CC3)CC2=O)c(C)c1 [Compound A2] | 4 (4=60-79%) | 5 (5=80-100%) | 0 | 5 (5=80-100%) | 5 (5=80-100%) | 4 (4=60-79%) | 4 (4=60-79%) | 3 (3=40-59%) | 1 (1=0-19%) | 5 (5=80-100%)
CC#Cc1cc(C)c(C2C(=O)CC3(CCN(C(=O)C(=O)NC)CC3)CC2=O)c(C)c1 [Compound A4, 2-[9-(2,6-dimethyl-4-prop-1-ynyl-phenyl)-8,10-dioxo-3-azaspiro[5.5]undecan-3-yl]-N-methyl-2-oxo-acetamide] | 5 (5=80-100%) | 5 (5=80-100%) | 4 (4=60-79%) | 5 (5=80-100%) | 5 (5=80-100%) | 5 (5=80-100%) | 5 (5=80-100%) | 5 (5=80-100%) | 5 (5=80-100%) | 5 (5=80-100%)
CC#Cc1cc(C)c(C2C(=O)CC3(CCN(C(=O)C(=O)N(C)C)CC3)CC2=O)c(C)c1 [Compound A5] | 5 (5=80-100%) | 5 (5=80-100%) | 5 (5=80-100%) | 5 (5=80-100%) | 5 (5=80-100%) | 5 (5=80-100%) | 5 (5=80-100%) | 5 (5=80-100%) | 4 (4=60-79%) | 5 (5=80-100%)
CC#Cc1cc(C)c(C2C(=O)CC3(CCN(C(=O)C(=O)Nc4ccccn4)CC3)CC2=O)c(C)c1 [Compound A6] | 5 (5=80-100%) | 5 (5=80-100%) | 2 (2=20-39%) | 5 (5=80-100%) | 5 (5=80-100%) | 5 (5=80-100%) | 5 (5=80-100%) | 4 (4=60-79%) | 4 (4=60-79%) | 5 (5=80-100%)
CC#Cc1cc(C)c(C2C(=O)CC3(CCN(C(=O)C(=O)C(C)(C)C)CC3)CC2=O)c(C)c1 [Compound A7] | 5 (5=80-100%) | 5 (5=80-100%) | 3 (3=40-59%) | 5 (5=80-100%) | 5 (5=80-100%) | 5 (5=80-100%) | 5 (5=80-100%) | 5 (5=80-100%) | 3 (3=40-59%) | 5 (5=80-100%)
CC#Cc1cc(C)c(C2C(=O)CC3(CCN(C(=O)C(N)=O)CC3)CC2=O)c(C)c1 [Compound A8] | 5 (5=80-100%) | 5 (5=80-100%) | 5 (5=80-100%) | 5 (5=80-100%) | 5 (5=80-100%) | 5 (5=80-100%) | 5 (5=80-100%) | 5 (5=80-100%) | 5 (5=80-100%) | 5 (5=80-100%)
CC#Cc1cc(C)c(C2C(=O)CC3(CCN(C(=O)C(=O)NC(C)(C)C)CC3)CC2=O)c(C)c1 [Compound A9, N-tert-butyl-2-[9-(2,6-dimethyl-4-prop-1-ynyl-phenyl)-8,10-dioxo-3-azaspiro[5.5]undecan-3-yl]-2-oxo-acetamide] | 4 (4=60-79%) | 5 (5=80-100%) | 5 (5=80-100%) | 5 (5=80-100%) | 5 (5=80-100%) | 5 (5=80-100%) | 5 (5=80-100%) | 5 (5=80-100%) | 5 (5=80-100%) | 5 (5=80-100%)
CC#Cc1cc(C)c(C2=C(OC(=O)OC)CC3(CCN(C(=O)C(C)=O)CC3)CC2=O)c(C)c1 [Compound P1, [9-(2,6-dimethyl-4-prop-1-ynyl-phenyl)-10-oxo-3-(2-oxopropanoyl)-3-azaspiro[5.5]undec-8-en-8-yl] methyl carbonate] | 5 (5=80-100%) | 5 (5=80-100%) | 5 (5=80-100%) | 5 (5=80-100%) | 5 (5=80-100%) | 5 (5=80-100%) | 5 (5=80-100%) | 5 (5=80-100%) | 5 (5=80-100%) | 5 (5=80-100%)

Reference: patent US12250947B2, “Substituted azaspiro-cycles as herbicides” (SYNGENTA CROP PROTECTION AG, priority 2019, dated 2025)
